Data as given in US20130053435A1, “Methods of Treating Alcohol Intoxication, Alcohol Use Disorders and Alcohol Abuse Which Comprises the Administration of Dihydromyricetin” (priority 2011, published 2013).
“And” between values parts separate entries of the source, which are not always exact repeats. Equal values may be shown once. Read-outs that look alike come from different tables or passages of the source.

Key:
[1] = test system: EtOH withdrawal-induced tolerance in rats; assay: EtOH withdrawal-induced tolerance measured by acute EtOH-induced LORR; format: in vivo, rat; conditions: for LORR duration after 48 hr withdrawal: test EtOH 3 g/kg i.p.; for acute EtOH-induced LORR after 48 hr withdrawal: FIG. 12B
Protocol: See Kakihana R, et al. (1966) Science 154(756):1574-1575). […] LORR duration ended when the animal was able to flip over three times in 30 s. LORR assays were blindly performed. LORR durations were reported as mean (min)±SEM.
After a 48 hr withdrawal period, EtOH-induced LORR assays (EtOH, 3 g/kg, i.p.) were performed.
48 hr after injection, rats were sub-divided into 3 groups to measure signs of EtOH withdrawal.
Tolerance to EtOH was measured with acute EtOH-induced LORR (in minutes, FIG. 12B). EtOH induced 63.6±7.0 LORR in the vehicle group subjects as compared to 10.8±3.8 LORR in EtOH group subjects.

GABAARs [2] = test system: T1, GABAARs; assay: Whole-cell patch-clamp, cultured hippocampal neurons, acute drug application; format: cell-based, rat; conditions: DHM 0.3 and 1 μM co-applied with GABA (b110 prints 1 M)
T1 construct: other: in the presence of 60 mM EtOH, rat hippocampal; shift of the GABA concentration-response curve
Protocol: (§1) Hippocampal neurons from embryonic day 18 rats were prepared by papain dissociation (Worthington Biochemical, Lakewood, N.J.) and cultured in neurobasal medium and B27 supplement (Invitrogen). Cultures were kept at 37° C. in a 5% CO2 humidified incubator as described previously. See Shen, Y., et al. (2011) Mol Pharmacol 79:432-442.
(§2) Hippocampal neurons from embryonic day 18 SD rats were prepared by papain dissociation (Worthington Biochemical, Lakewood, N.J.) and cultured in neurobasal medium (Invitrogen) and B27 supplement as previously reported. See Stowell J N and Craig A M (1999) Neuron 22(3):525-536. Briefly, embryos were removed from maternal rats anesthetized with isoflurane and euthanized by decapitation. Hippocampus were dissected and placed in Ca^2+- and Mg^2+-free HEPES-buffered Hank's buffered salt solution (pH 7.45). Tissues were dissociated by papain digestion followed by trituration through a Pasteur pipette and papain inhibitor treatment. Cells were pelleted and resuspended in neurobasal medium containing 2% B27 serum-free supplement, 100 U/ml penicillin, 100 μg/ml streptomycin, 0.5 mM glutamine (all from Invitrogen), and 10 μM glutamate (Sigma).
(§3) Dissociated neurons were then plated at a density of 0.3×10^5 cells/cm^2 onto 12 mm round coverslips in 24-well plates (for patch-clamp recording) and/or at a density of 0.5×10^5 cells/cm^2 in 6-well plates (for Western blot and biotinylation assays) coated with poly-D-lysine (Sigma, 50 μg/ml). Cultures were kept at 37° C. in a 5% CO2 humidified incubator. Thereafter, one third to half of the medium was replaced twice a week with neurobasal culture medium containing 2% B27 supplement, and 0.5 mM glutamine.
(§4) Control neurons were treated with corresponding vehicle as same procedure as EtOH-treated neurons. The concentration of 60 mM EtOH was selected in view of prior experiments. See Liang J et al (2007). Specifically, the concentration of 60 mM EtOH used to treat cultured neurons was chosen to match blood levels measured in adult rats after intoxication with gavage of 5 g/kg, which produced about 60 mM blood peak plasma [EtOH] lasting for about 2 to 3 hr and induced significant plasticity in GABAARs and tolerance.
(§5) Then, immediately before electrophysiological recording, cells grown on coverslips were transferred to a perfusion chamber (Warner Instruments) and visualized with an inverted microscope (TE200, Nikon). Whole-cell patch-clamp recordings were obtained from cultured neurons under voltage-clamp mode at room temperature (22-25° C.), at a holding potential of −70 mV. Cells were perfused with an extracellular solution (137 mM NaCl, 5 mM KCl, 2 mM CaCl2, 1 mM MgCl2, 20 mM glucose and 10 mM HEPES (310-320 Osm, pH adjusted to 7.40 with NaOH)). Glass pipettes were filled with the same internal solution as that in slice recordings, with an input resistance of 4-7 MΩ. GABAAR-mediated mIPSCs were recorded using the same pharmacological method as mentioned above. […] Electrical signals were amplified using a Multiclamp 200 B amplifier (Molecular Devices, USA). After establishing the whole-cell configuration, at least 10 min were allowed to elapse before the application of drug to allow the membrane patch to stabilize and exchange of ions between the recording electrode and the cytosol to occur. Data were acquired with pClamp software (Version 10.0, Molecular Devices, USA), digitized at 20 kHz (Digidata 1440A, Molecular Devices), and analyzed using the Clampfit software (Version 10.0, Molecular Devices) and the Mini Analysis Program (versions 6.0.7, Synaptosoft, Decatur, Ga.) using methods known in the art. See Hamann M, et al. (2002) Neuron 33(4):625-633; Stell B M and Mody I (2002) J Neurosci 22(10): RC223; and Liang (2007).

GABAARs [3] = test system: T2, GABAARs; assay: as above; format: cell-based, rat
T2 construct: DHM-enhanced Itonic; EC50 on GABAAR-mediated Itonic; other: control (vehicle) cultured neurons, DIV14; other: cultured neurons with EtOH exposure/withdrawal (60 mM, 30 min, 24 hr); EtOH-potentiated Itonic; GABAAR-mediated Ito
Protocol: as §1, §2, §3, §4, §5

GABAARs [4] = test system: T3, GABAARs; assay: as above; format: cell-based, rat
T3 construct: DHM-enhanced mIPSCs; other: control (vehicle) cultured neurons, DIV14; other: cultured neurons with EtOH exposure/withdrawal (60 mM, 30 min, 24 hr); EtOH-potentiated mIPSCs; effect on post-synaptic currents (mIPSCs); other: comparative experiments, rat hippocampal slices
Protocol: as §1, §2, §3, §4, §5

EC50 (GABAARs [3]; control (vehicle) cultured neurons, DIV14, read-out: EC50 on GABAAR-mediated Itonic): ~200 nM
EC50 (GABAARs [3]; cultured neurons with EtOH exposure/withdrawal (60 mM, 30 min, 24 hr), read-out: EC50 on Itonic): ~200 nM and ~300 nM
EC50 (GABAARs [4]; control (vehicle) cultured neurons, DIV14, read-out: EC50 on mIPSCs): ~200 nM and ~300 nM
Structure (SMILES): O=C1c2c(O)cc(O)cc2O[C@H](c2cc(O)c(O)c(O)c2)[C@H]1O [DHM, (2R,3R)-3,5,7-trihydroxy-2-(3,4,5-trihydroxyphenyl)-2,3-dihydrochromen-4-one]
LORR duration after 48 hr withdrawal ([1]; DHM 1 mg/kg i.p. alone): 61 ± 4 min
acute EtOH-induced LORR after 48 hr withdrawal ([1]; DHM group): 65.6 ± 8.4 min
acute EtOH-induced LORR after 48 hr withdrawal ([1]; EtOH+DHM (1 mg/kg) group): 61.0 ± 3.8 min
LORR duration after 48 hr withdrawal ([1]; i.p. EtOH 3 g/kg + DHM 1 mg/kg 30 min after EtOH): 61 ± 4 min
shift of the GABA concentration-response curve (GABAARs [2]): left shift
Itonic (GABAARs [3]; 0.3 μM DHM, cultured hippocampal neurons): 21.0±2.3 pA
Itonic (GABAARs [3]; 1 μM DHM, cultured hippocampal neurons DIV13-14): 194.9±13.6 % of control
mIPSCs (area) (GABAARs [4]; 1 μM DHM, cultured hippocampal neurons): 181.8±9.2 % of control and 128.2±8.3 % of control
